# Assay results as given in patent US6790869B2, “Resveratrol analogs for prevention of disease” (Rutgers, The State University of New Jersey, priority 1999, dated 2004).
# Where two headings read alike, the source gives them in different places.
# Key:
# [1] = tested on: W138 cells; assay: Morphological changes in cells; assay type: cell-based, human; settings: normal W138 cells
# Excerpt: (§1) In addition to inhibition of cell growth, treatment of W138 and W138VA cells with analogs led to morphological changes in the cells. Treatment of W138 cells with resveratrol and its analogs R-1 and R-3 led to elongation of normal W138 cells. Methoxy analogs such as MR-0 and MR-3 caused the flattening of W138 cells.
# [2] = tested on: W138 cells; assay: Apoptosis assay, fluorescent labeling of fragmented DNA; assay type: cell-based, human
# Excerpt: (§2) The effect of the analogs on apoptosis was also examined. Apoptosis is characterized by nuclear DNA fragmentation that is mediated through a variety of signal transduction pathways. An assay was used that relies on fluorescent labeling of fragmented DNA.
# [3] = tested on: W138VA cells; assay: as above; assay type: cell-based, human
# Excerpt: as §2
# [4] = tested on: W138 and W138VA cells; assay: Cell proliferation assay, result not separated by cell line; assay type: cell-based, human; settings: for effective concentration for growth inhibition: value in parentheses in Table 1, W138 / W138VA cells, 5 days
# Protocol: (§3) Initial tests examined the potential cancer preventive activity of the analogs. Resveratrol and its analogs were evaluated in W138 and SV40 transformed W138VA cells and in preneoplastic 184-B5/HER and neoplastic SK-BR-3 human mammary epithelial cells. Cell proliferation, apoptosis, and gene expression studies were conducted using standard methodologies.
# (§4) W138 human diploid fibroblasts and cancerous SV40-transformed W138 cells (W138VA) were used in a cell proliferation assay. Growth rate and viability of these cells was determined following addition of each analog. Doses tested ranged from 50 ng to 300 μg per ml or 1 μM to 100 μM concentrations in culture media. Cell cultures were grown for 5 days in the presence of the various doses of analogs. Growth rate was measured by counting viable cells using the trypan blue dye exclusion method. Resveratrol inhibited cell growth at low concentrations, less than 10 μM. […] MR-1 was not active as an inhibitor of cell growth even at doses as high as 100 μM.
# [5] = tested on: SV40-transformed W138 cells (W138VA); assay: Cell proliferation assay, viable cells counted by trypan blue dye exclusion; assay type: cell-based, human; parameters: key to Growth Rate in Cells Following Exposure to Resveratrol Analogs, W138VA Cells: +: >60% growth inhibition; —: no effect or only slight inhibition observed; settings: for Growth Rate in Cells Following Exposure to Resveratrol Analogs, W138VA Cells: at the concentration in parentheses after the analog, 5 days in culture
# Protocol: as §3, §4
# [6] = tested on: W138 human diploid fibroblasts; assay: as above; assay type: cell-based; parameters: key to Growth Rate in Cells Following Exposure to Resveratrol Analogs, W138 Cells: +: >60% growth inhibition; —: no effect or only slight inhibition observed; settings: for Growth Rate in Cells Following Exposure to Resveratrol Analogs, W138 Cells: at the concentration in parentheses after the analog, 5 days in culture
# Protocol: as §3, §4
# [7] = tested on: 184-B5/HER cells; assay: Apoptosis assay, fluorescent labeling of fragmented DNA; assay type: cell-based, human
# Excerpt: as §2
# [8] = tested on: 184-B5/HER cells; assay: Growth inhibition in 184-B5/HER cells; assay type: cell-based; settings: Homo sapiens
# Protocol: as §3
# (§5) Resveratrol and its analogs were also tested in 184-B5/HER cells.
# [9] = tested on: 184-B5/HER cells; assay: Anchorage-dependent colony formation assay; assay type: cell-based; settings: Homo sapiens
# Excerpt: Cell colony formation was also examined in 184-B5/HER cells. […] Resveratrol, MR-0 and MR-2 produced approximately 25-40% inhibition in the anchorage-dependent colony formation assay. MR-3, however, produced almost a 80% inhibition of colony formation.
# [10] = tested on: neutral β-galactosidase activity in W138 cells; assay: Neutral β-galactosidase staining (senescence marker); assay type: cell-based, human; settings: accompanying flattening
# Excerpt: as §1
# [11] = tested on: 184-B5/HER cells; assay: Cell cycle analysis; assay type: cell-based, human
# Protocol: as §5
# [12] = tested on: human glyceraldehyde-3-phosphate dehydrogenase (HG3PDH) expression; assay: Targeted gene assay by RT-PCR; assay type: cell-based; settings: W138 and W138VA cells, serum-stimulated from G0
# Protocol: (§6) Targeted gene assay was then performed using RT-PCR. Both normal (W138) and cancerous (W138VA) cells at resting phase (G0) were treated with 10-15% fetal bovine serum to initiate growth stimulation. Cells were then harvested at various time points during cell cycle progression. Total RNA was prepared from these cells according to standard RT-PCR methods. Paired gene specific primers were prepared and used including human glyceraldehyde-3-phosphate dehydrogenase HG3PDH), c-fos, c-myc, ornithine decarboxylase (ODC), proliferating cell nuclear antigen (PCNA), thymidine kinase (TK), cyclooxygenase 2 (COX2), BRCA1, BRCA2, p53, APC, MCC, pRb, cyclooxygenase 1 (COX1), bc12, and Bax. […] Expression of c-fos and c-myc, an early G1 event in normal W138 cells, were both deregulated in transformed W138VA cells. […] Similarly, treatment of cells, both normal and transformed, with either resveratrol or MR-3 had no effect on expression of ODC, PCNA, or TK genes (all cell cycle dependent genes).
# [13] = tested on: oncogene expression preneoplastic breast epithelial cells; assay: In vivo tumor inhibition in an orthotransplant model; settings: mice, AIN-76A diet with 400 ppm
# Protocol: The in vivo tumor inhibitory effects of MR-3 were tested in an orthotransplant model. Mice were transplanted with an oncogene expression preneoplastic breast epithelial cells. Mice were then divided into groups with the control group fed AIN-76A diet alone. Another group of mice was fed AIN-76A diet supplemented with 400 ppm MR-3.
# [14] = tested on: BRCA2 gene expression; assay: Targeted gene assay by RT-PCR; assay type: cell-based, human; settings: for effect on expression of BRCA2 gene: human cells, all time points examined
# Protocol: as §6
# (§7) Both BRCA1 and BRCA2 are breast cancer genes that together appear to be responsible for more than 60% of total hereditary breast cancers. Therefore, resveratrol and its analogs appear to modulate the breast cancer genes.
# [15] = tested on: BRCA1 gene expression; assay: Targeted gene assay by RT-PCR; assay type: cell-based, human; settings: for effect on expression of BRCA1 gene: human cells, all time points examined
# Protocol: as §6, §7
# [16] = tested on: proliferating cell nuclear antigen (PCNA) gene expression; assay: Targeted gene assay by RT-PCR; assay type: cell-based, human; settings: both normal and transformed cells
# Protocol: as §6
# [17] = tested on: ornithine decarboxylase (ODC) gene expression; assay: Targeted gene assay by RT-PCR; assay type: cell-based, human; settings: both normal and transformed cells
# Protocol: as §6
# [18] = tested on: c-myc expression; assay: Targeted gene assay by RT-PCR; assay type: cell-based, human; settings: W138 and W138VA cells, serum-stimulated from G0
# Protocol: as §6
# [19] = tested on: thymidine kinase (TK) gene expression; assay: Targeted gene assay by RT-PCR; assay type: cell-based, human; settings: both normal and transformed cells
# Protocol: as §6
# [20] = tested on: cyclooxygenase 2 (COX2) expression; assay: Targeted gene assay by RT-PCR; assay type: cell-based, human
# Protocol: as §6
# [21] = tested on: c-fos expression; assay: Targeted gene assay by RT-PCR; assay type: cell-based, human; settings: W138 and W138VA cells, serum-stimulated from G0
# Protocol: as §6
# [22] = read-out: concentration that inhibited growth by 50% (IC50), 184-B5/HER cells
# [23] = 184-B5/HER cells, continuous treatment with 4 μM, read-out: inhibition of colony formation
smiles,measurement,setting,value
"Oc1cc(O)cc(C=Cc2ccccc2)c1 [Analog R-1, 3,5-dihydroxystilbene]",morphological change of cells,[1],elongation
"Oc1ccc(C=Cc2cc(O)c(O)c(O)c2)cc1 [Analog R-3, 3,4,4′,5-tetrahydroxystilbene]",induction of apoptosis,[2],not in W138 cells
same,induction of apoptosis,[3],induced apoptosis
same,fold less effective than resveratrol in inhibiting cell growth,[4]; relative to resveratrol,10 fold
same,effective concentration for growth inhibition,[4],R3 (10 μM)
same,"Growth Rate in Cells Following Exposure to Resveratrol Analogs, W138VA Cells",[5],+ (>60% growth inhibition)
same,"Growth Rate in Cells Following Exposure to Resveratrol Analogs, W138 Cells",[6],+ (>60% growth inhibition)
same,morphological change of cells,[1],elongation
"COc1ccc(C=Cc2cc(OC)cc(OC)c2)cc1 [MR-0, 3,4′,5-trimethoxystilbene]",induction of apoptosis versus solvent-treated control cells,[7],induced apoptosis to a significantly greater extent than solvent-treated control cells
same,IC50,[8]; [22],10.5 µM
same,inhibition at 4 µM,[9]; [23],25 to 40%
same,neutral β-galactosidase activity (staining),[10],increase in neutral β-galactosidase activity
same,effective concentration for growth inhibition,[4],MR0 (100 μM)
same,ability to inhibit cell growth compared with resveratrol,[5]; W138VA cells,did not significantly affect
same,"Growth Rate in Cells Following Exposure to Resveratrol Analogs, W138VA Cells",[5],+ (>60% growth inhibition)
same,ability to inhibit cell growth compared with resveratrol,[6]; W138 cells,less effective than resveratrol
same,"Growth Rate in Cells Following Exposure to Resveratrol Analogs, W138 Cells",[6],+ (>60% growth inhibition)
same,morphological change of cells,[1],flattening
same,cell cycle effect relative to solvent-treated control cultures,[11],progressive arrest of cell in the G2/M phase
"COc1cc(C=Cc2ccccc2)cc(OC)c1 [MR-1, 3,5-dimethoxystilbene]",activity as an inhibitor of cell growth,[4]; doses as high as 100 μM,not active
same,effective concentration for growth inhibition,[4],MR1 (100 μM)
same,"Growth Rate in Cells Following Exposure to Resveratrol Analogs, W138VA Cells",[5],—
same,"Growth Rate in Cells Following Exposure to Resveratrol Analogs, W138 Cells",[6],—^4
"COc1cc(C=Cc2ccc(OC)c(OC)c2)cc(OC)c1 [MR-2, 3,3′,4,5′-tetramethoxystilbene]",induction of apoptosis versus solvent-treated control cells,[7],induced apoptosis to a significantly greater extent than solvent-treated control cells
same,IC50,[8]; [22],120 µM
same,inhibition at 4 µM,[9]; [23],25 to 40%
same,cell cycle effect relative to solvent-treated control cultures,[11],progressive arrest of cell in the G2/M phase
"COc1ccc(C=Cc2cc(OC)c(OC)c(OC)c2)cc1 [MR-3, 3,4,4′,5-tetramethoxystilbene]",induction of apoptosis versus solvent-treated control cells,[7],no effect
same,effect on expression of HG3PDH,[12],did not affect the expression
same,IC50,"[8]; 184B5, read-out: concentration that inhibited growth by 50% (IC50)",1 µM
same,inhibition at 4 µM,"[9]; 184B5, read-out: inhibition of colony formation",~80%
same,weight gains compared with control group,[13]; 12 weeks,comparable
same,tumor incidence,"[13]; 12 weeks continuous feeding, control group 100%",20%
same,neutral β-galactosidase activity (staining),[10],increase in neutral β-galactosidase activity
same,rank in inhibiting cell growth among the methylated analogs,[4],most effective
same,effective concentration for growth inhibition,[4],MR3 (1 μM)
same,effect on proliferation,"[5]; W138VA cells, 1 μM",completely blocked proliferation
same,"Growth Rate in Cells Following Exposure to Resveratrol Analogs, W138VA Cells",[5],+ (>60% growth inhibition)
same,effect on growth,"[6]; W138 cells, 1 μM",no effect
same,"Growth Rate in Cells Following Exposure to Resveratrol Analogs, W138 Cells",[6],—
same,morphological change of cells,[1],flattening
same,cell cycle effect relative to solvent-treated control cultures,[11],progressive arrest of cell in the G2/M phase
same,rank in cell cycle arrest,[11],most effective compound
same,potency in inhibiting expression of BRCA2 compared with resveratrol,[14]; at equal doses,more potent than resveratrol
same,effect on expression of BRCA2 gene,[14],completely abolished expression
same,potency in inhibiting expression of BRCA1 compared with resveratrol,[15]; at equal doses,more potent than resveratrol
same,effect on expression of BRCA1 gene,[15],completely abolished expression
same,effect on expression of PCNA gene,[16],no effect
same,effect on expression of ODC gene,[17],no effect
same,effect on expression of c-myc,[18],did not significantly affect the expression
same,effect on expression of TK gene,[19],no effect
same,effect on expression of COX2,[20]; W138VA cells,stimulated the expression
same,effect on expression of COX2,[20]; W138 cells,not in W138 cells
same,effect on expression of c-fos,[21],did not significantly affect the expression
"COc1cc(C=Cc2cc(OC)cc(OC)c2)cc(OC)c1 [MR-4, 3,3′,5′5′-tetramethoxystilbene]",effective concentration for growth inhibition,[4],MR4 (100 μM)
same,inhibition of growth,"[5]; W138VA cells, 100 μM",not W138VA cells
same,"Growth Rate in Cells Following Exposure to Resveratrol Analogs, W138VA Cells",[5],—
same,inhibition of growth,"[6]; W138 cells, 100 μM",inhibited growth
same,"Growth Rate in Cells Following Exposure to Resveratrol Analogs, W138 Cells",[6],+ (>60% growth inhibition)
"COc1cc(C=Cc2cc(OC)c(OC)c(OC)c2)cc(OC)c1 [MR-5, 3,3′,4,5,5′-pentamethoxystilbene]",effective concentration for growth inhibition,[4],MR5 (100 μM)
same,"Growth Rate in Cells Following Exposure to Resveratrol Analogs, W138VA Cells",[5],+ (>60% growth inhibition)
same,"Growth Rate in Cells Following Exposure to Resveratrol Analogs, W138 Cells",[6],+ (>60% growth inhibition)
"Oc1ccc(C=Cc2cc(O)cc(O)c2)cc1 [Resveratrol, 3,4′,5-trihydroxystilbene]",induction of apoptosis versus solvent-treated control cells,[7],induced apoptosis to a significantly greater extent than solvent-treated control cells
same,effect on expression of HG3PDH,[12],did not affect the expression
same,IC50,[8]; [22],10.5 µM
same,inhibition at 4 µM,[9]; [23],25 to 40%
same,concentration at which cell growth was inhibited,[4]; 5 days in culture,less than 10 μM
same,effective concentration for growth inhibition,[4],R0 (10 μM)^1
same,"Growth Rate in Cells Following Exposure to Resveratrol Analogs, W138VA Cells",[5],+ (>60% growth inhibition)
same,"Growth Rate in Cells Following Exposure to Resveratrol Analogs, W138 Cells",[6],+^2 (>60% growth inhibition)
same,morphological change of cells,[1],elongation
same,effect on expression of BRCA2 gene,[14],completely abolished expression
same,effect on expression of BRCA1 gene,[15],completely abolished expression
same,effect on expression of PCNA gene,[16],no effect
same,effect on expression of ODC gene,[17],no effect
same,effect on expression of c-myc,[18],did not significantly affect the expression
same,effect on expression of TK gene,[19],no effect
same,effect on expression of c-fos,[21],did not significantly affect the expression
